From ChEMBL document CHEMBL2176881, “Development of N-[4-[6-(isopropylamino)pyrimidin-4-yl]-1,3-thiazol-2-yl]-N-methyl-4-[11C]methylbenzamide for positron emission tomography imaging of metabotropic glutamate 1 receptor in monkey brain” (J Med Chem, 2012)

Key:
[1] = Metabolic stability in monkey plasma assessed as unchanged drug level at 185 MBq/0.1 mL, iv after 60 mins; type: ADME, organism-based, Macaca mulatta; settings: rhesus monkey, read-out: Stability
[2] = Drug uptake in monkey cingulate cortex assessed as distribution volume ratio at 185 to 220 MBq, iv after 10 to 90 mins by PET analysis; type: ADME, organism-based, Macaca mulatta; settings: rhesus monkey, in vivo
[3] = test system: Muscle tissue; experiment: Biodistribution in ddY mouse muscle at 4.8 MBq/0.1 mL after 15 mins by gamma counting; type: ADME, organism-based; settings: in vivo, 0.25 h
[4] = test system: Liver; experiment: Biodistribution in ddY mouse liver at 4.8 MBq/0.1 mL after 5 mins by gamma counting; type: ADME, organism-based; settings: in vivo
[5] = test system: Lung; experiment: Biodistribution in ddY mouse lung at 4.8 MBq/0.1 mL after 60 mins by gamma counting; type: ADME, organism-based; settings: in vivo, 1 h
[6] = test system: Muscle tissue; experiment: Biodistribution in ddY mouse muscle at 4.8 MBq/0.1 mL after 60 mins by gamma counting; type: ADME, organism-based; settings: in vivo, 1 h
[7] = test system: Liver; experiment: Biodistribution in ddY mouse liver at 4.8 MBq/0.1 mL after 90 mins by gamma counting; type: ADME, organism-based; settings: in vivo, 1.5 h
[8] = Metabolic stability in Sprague-Dawley plasma assessed as unchanged drug level at 37 MBq/0.1 mL, iv after 60 mins; type: ADME, organism-based; settings: rat, read-out: Stability
[9] = test system: Muscle tissue; experiment: Biodistribution in ddY mouse muscle at 4.8 MBq/0.1 mL after 1 min by gamma counting; type: ADME, organism-based; settings: in vivo
[10] = test system: Brain; experiment: Biodistribution in ddY mouse brain at 4.8 MBq/0.1 mL after 30 mins by gamma counting; type: ADME, organism-based; settings: in vivo, 0.5 h
[11] = test system: Heart; experiment: Biodistribution in ddY mouse heart at 4.8 MBq/0.1 mL after 60 mins by gamma counting; type: ADME, organism-based; settings: in vivo, 1 h
[12] = test system: Spleen; experiment: Biodistribution in ddY mouse spleen at 4.8 MBq/0.1 mL after 5 mins by gamma counting; type: ADME, organism-based; settings: in vivo
[13] = Metabolic stability in monkey plasma assessed as unchanged drug level at 185 MBq/0.1 mL, iv after 30 mins; type: ADME, organism-based, Macaca mulatta; settings: rhesus monkey, read-out: Stability
[14] = Metabolic stability in Sprague-Dawley brain assessed as unchanged drug level at 37 MBq/0.1 mL, iv after 60 mins; type: ADME, organism-based; settings: rat, read-out: Stability
[15] = test system: Lung; experiment: Biodistribution in ddY mouse lung at 4.8 MBq/0.1 mL after 90 mins by gamma counting; type: ADME, organism-based; settings: in vivo, 1.5 h
[16] = test system: Heart; experiment: Biodistribution in ddY mouse heart at 4.8 MBq/0.1 mL after 5 mins by gamma counting; type: ADME, organism-based; settings: in vivo
[17] = test system: Lung; experiment: Biodistribution in ddY mouse lung at 4.8 MBq/0.1 mL after 15 mins by gamma counting; type: ADME, organism-based; settings: in vivo, 0.25 h
[18] = species on record: Mus musculus; experiment: Biodistribution in ddY mouse testis at 4.8 MBq/0.1 mL after 90 mins by gamma counting; type: ADME, organism-based; settings: in vivo, 1.5 h
[19] = species on record: Mus musculus; experiment: Biodistribution in ddY mouse small intestine at 4.8 MBq/0.1 mL after 30 mins by gamma counting; type: ADME, organism-based; settings: in vivo, 0.5 h
[20] = test system: Heart; experiment: Biodistribution in ddY mouse heart at 4.8 MBq/0.1 mL after 30 mins by gamma counting; type: ADME, organism-based; settings: in vivo, 0.5 h
[21] = test system: Heart; experiment: Biodistribution in ddY mouse heart at 4.8 MBq/0.1 mL after 15 mins by gamma counting; type: ADME, organism-based; settings: in vivo, 0.25 h
[22] = test system: Spleen; experiment: Biodistribution in ddY mouse spleen at 4.8 MBq/0.1 mL after 1 min by gamma counting; type: ADME, organism-based; settings: in vivo
[23] = test system: Hippocampus; experiment: Drug uptake in monkey hippocampus at 185 to 220 MBq, iv after 10 mins by PET analysis; type: ADME, organism-based, Macaca mulatta; settings: rhesus monkey, in vivo
[24] = test system: Kidney; experiment: Biodistribution in ddY mouse kidney at 4.8 MBq/0.1 mL after 15 mins by gamma counting; type: ADME, organism-based; settings: in vivo, 0.25 h
[25] = Metabolic stability in Sprague-Dawley brain assessed as unchanged drug level at 37 MBq/0.1 mL, iv after 30 mins; type: ADME, organism-based; settings: rat, read-out: Stability
[26] = Drug uptake in monkey cerebellum assessed as distribution volume ratio at 185 to 220 MBq, iv after 10 to 90 mins by PET analysis; type: ADME, organism-based, Macaca mulatta; settings: rhesus monkey, in vivo
[27] = Drug uptake in monkey pons at 185 to 220 MBq, iv after 10 mins by PET analysis; type: ADME, organism-based, Macaca mulatta; settings: rhesus monkey, in vivo
[28] = species on record: Mus musculus; experiment: Biodistribution in ddY mouse small intestine at 4.8 MBq/0.1 mL after 5 mins by gamma counting; type: ADME, organism-based; settings: in vivo
[29] = test system: Spleen; experiment: Biodistribution in ddY mouse spleen at 4.8 MBq/0.1 mL after 60 mins by gamma counting; type: ADME, organism-based; settings: in vivo, 1 h
[30] = Drug uptake in monkey thalamus at 185 to 220 MBq, iv after 20 mins by PET analysis; type: ADME, organism-based, Macaca mulatta; settings: rhesus monkey, in vivo
[31] = test system: Kidney; experiment: Biodistribution in ddY mouse kidney at 4.8 MBq/0.1 mL after 1 min by gamma counting; type: ADME, organism-based; settings: in vivo
[32] = test system: Spleen; experiment: Biodistribution in ddY mouse spleen at 4.8 MBq/0.1 mL after 90 mins by gamma counting; type: ADME, organism-based; settings: in vivo, 1.5 h
[33] = test system: Heart; experiment: Biodistribution in ddY mouse heart at 4.8 MBq/0.1 mL after 1 min by gamma counting; type: ADME, organism-based; settings: in vivo
[34] = test system: Muscle tissue; experiment: Biodistribution in ddY mouse muscle at 4.8 MBq/0.1 mL after 5 mins by gamma counting; type: ADME, organism-based; settings: in vivo
[35] = test system: Blood; experiment: Biodistribution in ddY mouse blood at 4.8 MBq/0.1 mL after 1 min by gamma counting; type: ADME, organism-based; settings: in vivo
[36] = Metabolic stability in monkey plasma assessed as unchanged drug level at 185 MBq/0.1 mL, iv after 5 mins; type: ADME, organism-based, Macaca mulatta; settings: rhesus monkey, read-out: Stability
[37] = test system: Brain; experiment: Biodistribution in ddY mouse brain at 4.8 MBq/0.1 mL after 1 min by gamma counting; type: ADME, organism-based; settings: in vivo
[38] = test system: Muscle tissue; experiment: Biodistribution in ddY mouse muscle at 4.8 MBq/0.1 mL after 90 mins by gamma counting; type: ADME, organism-based; settings: in vivo, 1.5 h
[39] = species on record: Mus musculus; experiment: Biodistribution in ddY mouse small intestine at 4.8 MBq/0.1 mL after 15 mins by gamma counting; type: ADME, organism-based; settings: in vivo, 0.25 h
[40] = test system: Spleen; experiment: Biodistribution in ddY mouse spleen at 4.8 MBq/0.1 mL after 30 mins by gamma counting; type: ADME, organism-based; settings: in vivo, 0.5 h
[41] = test system: Muscle tissue; experiment: Biodistribution in ddY mouse muscle at 4.8 MBq/0.1 mL after 30 mins by gamma counting; type: ADME, organism-based; settings: in vivo, 0.5 h
[42] = species on record: Mus musculus; experiment: Biodistribution in ddY mouse small intestine at 4.8 MBq/0.1 mL after 1 min by gamma counting; type: ADME, organism-based; settings: in vivo
[43] = test system: Pancreas; experiment: Biodistribution in ddY mouse pancreas at 4.8 MBq/0.1 mL after 5 mins by gamma countingeas; type: ADME, organism-based; settings: in vivo
[44] = test system: Pancreas; experiment: Biodistribution in ddY mouse pancreas at 4.8 MBq/0.1 mL after 15 mins by gamma countingeas; type: ADME, organism-based; settings: in vivo, 0.25 h
[45] = test system: Brain; experiment: Biodistribution in ddY mouse brain at 4.8 MBq/0.1 mL after 60 mins by gamma counting; type: ADME, organism-based; settings: in vivo, 1 h
[46] = test system: Lung; experiment: Biodistribution in ddY mouse lung at 4.8 MBq/0.1 mL after 5 mins by gamma counting; type: ADME, organism-based; settings: in vivo
[47] = test system: Heart; experiment: Biodistribution in ddY mouse heart at 4.8 MBq/0.1 mL after 90 mins by gamma counting; type: ADME, organism-based; settings: in vivo, 1.5 h
[48] = test system: Blood; experiment: Biodistribution in ddY mouse blood at 4.8 MBq/0.1 mL after 90 mins by gamma counting; type: ADME, organism-based; settings: in vivo, 1.5 h
[49] = species on record: Mus musculus; experiment: Biodistribution in ddY mouse testis at 4.8 MBq/0.1 mL after 5 mins by gamma counting; type: ADME, organism-based; settings: in vivo
[50] = test system: Blood; experiment: Biodistribution in ddY mouse blood at 4.8 MBq/0.1 mL after 60 mins by gamma counting; type: ADME, organism-based; settings: in vivo, 1 h
[51] = test system: Hippocampus; experiment: Drug uptake in monkey hippocampus assessed as distribution volume ratio at 185 to 220 MBq, iv after 10 to 90 mins by PET analysis; type: ADME, organism-based, Macaca mulatta; settings: rhesus monkey, in vivo

CC(C)Nc1cc(-c2csc(N(C)C(=O)c3ccc([14CH3])cc3)n2)ncn1
remaining at 1 h [1]: 28.4% | Ratio [2]: 2.6 | Drug uptake [3]: 0.23 % ID/g | Drug uptake [4]: 11.38 % ID/g | Drug uptake [5]: 0.2 % ID/g | Drug uptake [6]: 0.07 % ID/g | Drug uptake [7]: 0.3 % ID/g | remaining at 1 h [8]: 33.9% | Drug uptake [9]: 2.59 % ID/g | Drug uptake [10]: 1.59 % ID/g | Drug uptake [11]: 0.06 % ID/g | Drug uptake [12]: 0.93 % ID/g | remaining at 0.5 h [13]: 35.8% | remaining at 1 h [14]: 98.2% | Drug uptake [15]: 0.12 % ID/g | Drug uptake [16]: 1.28 % ID/g | Drug uptake [17]: 0.86 % ID/g | Drug uptake [18]: 0.14 % ID/g | Drug uptake [19]: 16.53 % ID/g | Drug uptake [20]: 0.09 % ID/g | Drug uptake [21]: 0.27 % ID/g | Drug uptake [22]: 1.74 % ID/g | Drug uptake [23]: Active | Drug uptake [24]: 1.32 % ID/g | remaining at 0.5 h [25]: 97% | Ratio [26]: 4.3 | Drug uptake [27]: Active | Drug uptake [28]: 66.76 % ID/g | Drug uptake [29]: 0.02 % ID/g | SUV [30]: 0.8 | Drug uptake [31]: 11.12 % ID/g | Drug uptake [32]: 0.02 % ID/g | Drug uptake [33]: 4.93 % ID/g | Drug uptake [34]: 0.96 % ID/g | Drug uptake [35]: 3.09 % ID/g | remaining at 5 min [36]: 70.2% | Drug uptake [37]: 2.19 % ID/g | Drug uptake [38]: 0.17 % ID/g | Drug uptake [39]: 41.52 % ID/g | Drug uptake [40]: 0.07 % ID/g | Drug uptake [41]: 0.13 % ID/g | Drug uptake [42]: 10.07 % ID/g | Drug uptake [43]: 1.23 % ID/g | Drug uptake [44]: 0.3 % ID/g | Drug uptake [45]: 1.04 % ID/g | Drug uptake [46]: 2.56 % ID/g | Drug uptake [47]: 0.01 % ID/g | Drug uptake [48]: 0.02 % ID/g | Drug uptake [49]: 0.63 % ID/g | Drug uptake [50]: 0.05 % ID/g | Ratio [51]: 1.8
